This passage reports IC50 results from patent US8148367B2 (Takeda Pharmaceutical Company Limited, priority 2008, dated 2012).

This assay concerns the target T1, Recombinant human renin (Homo sapiens, UniProt P00797).
T1 construct: isolate the active form (residues 67-406); made in house; host or cells: FreeStyle 293-F cells, transient expression of pcDNA3.1(+)/hREN
T1 sequence (P00797 67-406): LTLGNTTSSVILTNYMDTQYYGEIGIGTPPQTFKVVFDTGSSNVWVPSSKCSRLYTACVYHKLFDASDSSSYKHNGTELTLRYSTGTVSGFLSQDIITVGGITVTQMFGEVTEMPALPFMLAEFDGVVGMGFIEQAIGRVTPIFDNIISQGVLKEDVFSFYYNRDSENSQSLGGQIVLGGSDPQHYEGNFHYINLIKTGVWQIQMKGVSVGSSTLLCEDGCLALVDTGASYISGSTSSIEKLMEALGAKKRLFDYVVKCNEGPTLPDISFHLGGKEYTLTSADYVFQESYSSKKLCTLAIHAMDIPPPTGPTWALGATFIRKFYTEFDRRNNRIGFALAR
Kind of assay: In vitro enzymatic activity assay of renin inhibitors (fluorescence, QXL520/HiLyteFluo488 peptide substrate). The format is biochemical. To be noted: recombinant human renin 3 nM, 1 μM substrate, pre-incubated 10 minutes at 37° C., incubation one hour, pH 7.4, 5% DMSO; read-out: IC50 of Exemplified Compounds Against Renin.

A value given as a limit tells only on which side of the number the result lay.

For orientation: IC50 means the concentration needed to halve the response being measured. Take `COCCCOc1cccc(-n2c(-c3ccccc3)c(C(=O)N3CCNCC3)n(CCNS(=O)(=O)c3ccccc3)c2=O)c1` [Example 183, N-(2-(3-(3-(3-Methoxypropoxy)phenyl)-2-oxo-4-phenyl-5-(piperazine-1-carbonyl)-2,3-dihydro-1H-imidazol-1-yl)ethyl)benzenesulfonamide]: the IC50 is over 1000 nM. As to `COCCCOc1cccc(-n2c(-c3ccccc3)c(C(=O)N3CCNCC3)n(CCNC(=O)CC(C)C)c2=O)c1` [Example 184, N-(2-(3-(3-(3-Methoxypropoxy)phenyl)-2-oxo-4-phenyl-5-(piperazine-1-carbonyl)-2,3-dihydro-1H-imidazol-1-yl)ethyl)-3-methylbutanamide], the IC50 was over 1000 nM. As to `O=C(c1c(-c2ccccc2)n(-c2cccc(N3CCOCC3)c2)c(=O)n1CCNS(=O)(=O)c1ccccc1)N1CCNCC1` [Example 185, N-(2-(3-(3-Morpholinophenyl)-2-oxo-4-phenyl-5-(piperazine-1-carbonyl)-2,3-dihydro-1H-imidazol-1-yl)ethyl)benzenesulfonamide], the IC50 was over 1000 nM. `COCCOc1cccc(Cn2c(C(=O)N3CCNCC3)c(-c3ccccc3)n(-c3ccccc3C)c2=O)c1` [Example 186, 1-(3-(2-Methoxyethoxy)benzyl)-4-phenyl-5-(piperazine-1-carbonyl)-3-o-tolyl-1H-imidazol-2(3H)-one]: the IC50 is 100 to 500 nM. In the case of `COCCOc1cccc(Cn2c(C(=O)N3CCNCC3)c(-c3ccccc3)n(-c3ccccc3OC)c2=O)c1` [Example 187, 1-(3-(2-Methoxyethoxy)benzyl)-3-(2-methoxyphenyl)-4-phenyl-5-(piperazine-1-carbonyl)-1H-imidazol-2(3H)-one] it was over 1000 nM; in that of `COc1ccccc1-n1c(-c2ccccc2)c(C(=O)N2CCNCC2)n(Cc2cccc(OCCOc3ccccc3)c2)c1=O` [Example 188, 1-(2-Methoxyphenyl)-3-(3-(2-phenoxyethoxy)benzyl)-5-phenyl-4-(piperazine-1-carbonyl)-1H-imidazol-2(3H)-one], 100 to 500 nM. The figure for `O=C(c1c(-c2ccccc2)n(-c2cccc(N3CCOCC3)c2)c(=O)n1CC1CCCCC1)N1CCNCC1` [Example 189, 1-(Cyclohexylmethyl)-3-(3-morpholinophenyl)-4-phenyl-5-(piperazine-1-carbonyl)-1H-imidazol-2(3H)-one] is over 1000 nM.

As to `O=C(c1c(-c2ccccc2)n(-c2cccc(N3CCOCC3)c2)c(=O)n1Cc1ccc(F)c(F)c1)N1CCNCC1` [Example 190, 1-(3,4-Difluorobenzyl)-3-(3-morpholinophenyl)-4-phenyl-5-(piperazine-1-carbonyl)-1H-imidazol-2(3H)-one], the IC50 was 500 to 1000 nM. The figure for `O=C(c1c(-c2ccccc2)n(-c2cccc(N3CCOCC3)c2)c(=O)n1Cc1cccc(OCCOc2ccccc2)c1)N1CCNCC1` [Example 191, 1-(3-Morpholinophenyl)-3-(3-(2-phenoxyethoxy)benzyl)-5-phenyl-4-(piperazine-1-carbonyl)-1H-imidazol-2(3H)-one] is 100 to 500 nM; for `COCCCOc1cccc(-n2c(-c3ccccc3)c(C(=O)N3CCNCC3)n(Cc3cccc(OCCOC)c3)c2=O)c1` [Example 192, 1-(3-(2-Methoxyethoxy)benzyl)-3-(3-(3-methoxypropoxy)phenyl)-4-phenyl-5-(piperazine-1-carbonyl)-1H-imidazol-2(3H)-one] it is over 1000 nM. In the case of `O=C(c1c(-c2ccccc2)n(-c2cccc(N3CCOCC3)c2)c(=O)n1CCCNS(=O)(=O)c1ccccc1F)N1CCNCC1` [Example 193, 2-Fluoro-N-(3-(3-(3-morpholinophenyl)-2-oxo-4-phenyl-5-(piperazine-1-carbonyl)-2,3-dihydro-1H-imidazol-1-yl)propyl)benzenesulfonamide] it was over 1000 nM; in that of `O=C(c1c(-c2ccccc2)n(-c2cccc(N3CCOCC3)c2)c(=O)n1CCCNS(=O)(=O)c1ccccc1Cl)N1CCNCC1` [Example 194, 2-Chloro-N-(3-(3-(3-morpholinophenyl)-2-oxo-4-phenyl-5-(piperazine-1-carbonyl)-2,3-dihydro-1H-imidazol-1-yl)propyl)benzenesulfonamide], under 100 nM. The figure for `O=C(c1c(-c2ccccc2)n(-c2cccc(N3CCOCC3)c2)c(=O)n1CCCNS(=O)(=O)c1cccc(Cl)c1)N1CCNCC1` [Example 195, 3-Chloro-N-(3-(3-(3-morpholinophenyl)-2-oxo-4-phenyl-5-(piperazine-1-carbonyl)-2,3-dihydro-1H-imidazol-1-yl)propyl)benzenesulfonamide] is 500 to 1000 nM; for `CC(C)S(=O)(=O)NCCCn1c(C(=O)N2CCNCC2)c(-c2ccccc2)n(-c2cccc(N3CCOCC3)c2)c1=O` [Example 196, N-(3-(3-(3-Morpholinophenyl)-2-oxo-4-phenyl-5-(piperazine-1-carbonyl)-2,3-dihydro-1H-imidazol-1-yl)propyl)propane-2-sulfonamide] it is over 1000 nM; for `Cc1ccccc1S(=O)(=O)NCCCn1c(C(=O)N2CCNCC2)c(-c2ccccc2)n(-c2cccc(N3CCOCC3)c2)c1=O` [Example 197, 2-Methyl-N-(3-(3-(3-morpholinophenyl)-2-oxo-4-phenyl-5-(piperazine-1-carbonyl)-2,3-dihydro-1H-imidazol-1-yl)propyl)benzenesulfonamide] it is over 1000 nM. For `COc1cccc(S(=O)(=O)NCCCn2c(C(=O)N3CCNCC3)c(-c3ccccc3)n(-c3cccc(N4CCOCC4)c3)c2=O)c1` [Example 198, 3-Methoxy-N-(3-(3-(3-morpholinophenyl)-2-oxo-4-phenyl-5-(piperazine-1-carbonyl)-2,3-dihydro-1H-imidazol-1-yl)propyl)benzenesulfonamide], the IC50 was 100 to 500 nM. Take `COc1ccc(S(=O)(=O)NCCCn2c(C(=O)N3CCNCC3)c(-c3ccccc3)n(-c3cccc(N4CCOCC4)c3)c2=O)cc1` [Example 199, 4-Methoxy-N-(3-(3-(3-morpholinophenyl)-2-oxo-4-phenyl-5-(piperazine-1-carbonyl)-2,3-dihydro-1H-imidazol-1-yl)propyl)benzenesulfonamide]: the IC50 lay within 500 to 1000 nM. In the case of `O=C(NCCCn1c(C(=O)N2CCNCC2)c(-c2ccccc2)n(-c2cccc(N3CCOCC3)c2)c1=O)Nc1ccccc1` [Example 200, 1-(3-(3-(3-Morpholinophenyl)-2-oxo-4-phenyl-5-(piperazine-1-carbonyl)-2,3-dihydro-1H-imidazol-1-yl)propyl)-3-phenylurea] it was 500 to 1000 nM. Turning to `O=C(c1c(-c2ccccc2)n(-c2cccc(N3CCOCC3)c2)c(=O)n1CCCNS(=O)(=O)c1ccc(Cl)cc1)N1CCNCC1` [Example 202, 4-Chloro-N-(3-(3-(3-morpholinophenyl)-2-oxo-4-phenyl-5-(piperazine-1-carbonyl)-2,3-dihydro-1H-imidazol-1-yl)propyl)benzenesulfonamide], the IC50 was 500 to 1000 nM. With `Cc1ccccc1-n1c(-c2ccccc2)c(C(=O)N2CCNCC2)n(CCNS(=O)(=O)c2ccccc2F)c1=O` [Example 203, 2-Fluoro-N-(2-(2-oxo-4-phenyl-5-(piperazine-1-carbonyl)-3-o-tolyl-2,3-dihydro-1H-imidazol-1-yl)ethyl)benzenesulfonamide], the IC50 lay in the range of 500 to 1000 nM.
